Reference: paper PMC6864136 (Saudi Journal of Biological Sciences, 2018)
Values after ≈ are worked out from the molar mass of the structure shown. Values joined by “and” are separate entries in the source; they are usually repeats but may differ in a detail not shown here. Equal values may be shown once. Read-outs that look alike come from different tables or passages of the source.

What was measured:
[1] = tested on: Spodoptera frugiperda larvae; format: in vivo
[2] = tested on: Spodoptera frugiperda larvae; experiment: whole plant or invertebrate; format: in vivo; conditions: for EC50: Spodoptera frugiperda, in Zea mays, read-out: Antifeedant activity CE50 (µg/mL), S. frugiperda larvae, no-choice; for EC50 / Antifeedant activity CE50 (µg/mL) / Antifeedant activity CE50: 95% confidence limits in parentheses; for Antifeedant activity CE50 (µg/mL) / Antifeedant activity CE50: S. frugiperda larvae, no-choice
electric-eel AChE = electric-eel AChE (Electrophorus electricus, UniProt O42275); experiment: In vitro acetylcholinesterase inhibition; format: biochemical
Chain of electric-eel AChE (O42275 24-633): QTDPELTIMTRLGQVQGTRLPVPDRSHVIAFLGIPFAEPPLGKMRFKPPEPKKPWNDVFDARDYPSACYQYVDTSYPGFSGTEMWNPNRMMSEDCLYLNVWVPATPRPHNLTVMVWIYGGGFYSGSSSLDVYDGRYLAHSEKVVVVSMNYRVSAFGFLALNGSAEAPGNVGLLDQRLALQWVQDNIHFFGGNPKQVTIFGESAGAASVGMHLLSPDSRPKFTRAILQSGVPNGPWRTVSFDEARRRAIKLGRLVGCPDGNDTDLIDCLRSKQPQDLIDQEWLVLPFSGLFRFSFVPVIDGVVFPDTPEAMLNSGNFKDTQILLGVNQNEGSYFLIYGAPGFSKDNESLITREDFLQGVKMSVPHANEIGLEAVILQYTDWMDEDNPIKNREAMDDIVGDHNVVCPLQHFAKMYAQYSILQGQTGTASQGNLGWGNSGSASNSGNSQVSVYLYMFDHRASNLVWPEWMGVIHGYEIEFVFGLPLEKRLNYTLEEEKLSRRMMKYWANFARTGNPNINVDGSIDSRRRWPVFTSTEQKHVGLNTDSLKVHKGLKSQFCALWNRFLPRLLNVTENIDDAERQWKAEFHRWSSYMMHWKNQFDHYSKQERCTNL

Artemia salina larvae = experiment: Brine shrimp lethality; conditions: A. salina nauplii; 95% confidence limits in parentheses
[3] = S. frugiperda larvae, topical application, 95% confidence limits in parentheses

Row | Compound | Insecticidal activity LD50 (mg/g of insect) [1, 3] | EC50 [2] | Antifeedant index (% AI) ([2]; concentration 50 µg/mL) | Antifeedant index (% AI) ([2]; concentration 100 µg/mL) | Antifeedant index (% AI) ([2]; concentration 250 µg/mL) | Antifeedant index (% AI) ([2]; concentration 500 µg/mL) | Antifeedant index (% AI) ([2]; concentration 1000 µg/mL) | IC50 (electric-eel AChE) | Antifeedant activity CE50 (µg/mL) [2] | Antifeedant index (% AI) ([2]; concentration 25 µg/mL) | LC50 (µg/mL), toxicity in Artemia salina larvae test (Artemia salina larvae) | Antifeedant activity CE50 [2] | Insecticidal activity LD50 (mg/g of insect) ([1]; in vivo)
1 | CCCc1ccc(O)c(OC)c1 [Compound 13, 2-methoxy-4-propylphenol] | 2.02 (1.87–2.17) mg/g of insect | 319 µg/mL (≈ 1920 µM) | 11.7% | 26.7% | 38.6% | 65.0% | 72.9% | 132 ± 2.77 µM | – | – | – | – | –
2 | COc1cc(C2OCOCC2C)ccc1O (centres unmarked) [Compound 14, 2-methoxy-4-(5-methyl-1,3-dioxan-4-yl)-phenol] | – | 1800 µg/mL (≈ 8010 µM) | – | 10.5% | 20.0% | 33.2% | 41.9% | 168 µM | – | – | – | – | –
3 | CC=Cc1ccc(OC(=O)c2ccc([N+](=O)[O-])cc2)c(OC)c1 [Compound 12, O-(4-nitrobenzoyl)isoeugenol] | – | 388 µg/mL (≈ 1240 µM) | 14.4% | 30.2% | 41.5% | 52.8% | 66.9% | 228 µM | – | – | – | – | –
4 | CC1(C)C(C=C(Cl)Cl)C1C(=O)OC(C#N)c1cccc(Oc2ccccc2)c1 (centres unmarked) [Cypermethrin, cypermethrin, reference compound] | – | 23.9 µg/mL (≈ 57.3 µM) | 56.0% | 61.0% | 66.5% | 72.7% | 77.9% | – | 23.83 (22.55–25.15) µg/mL | 49.2% | 404.2 (383.2–425.2) µg/mL | – | –
5 | Isoeugenol [Compound 8] | – | – | 37.3% | 45.6% | 56.6% | 65.9% | 78.5% | – | 158.5 (149.3–167.8) µg/mL | 15.6% | – | 158.51 µg/mL and < 210 µg/mL | –
6 | C=CCc1ccc(OC(=O)c2ccc([N+](=O)[O-])cc2)c(OC)c1 [Compound 7, O-(4-nitrobenzoyl)eugenol] | – | 724 µg/mL (≈ 2310 µM) | 23.8% | 31.6% | 39.4% | 45.1% | 55.0% | 314 µM | – | – | – | – | –
7 | CNC(=O)ON=C(C)SC [Methomyl, methomyl, reference compound] | 0.31 (0.29–0.33) mg/g of insect | – | – | – | – | – | – | 1.91 µM | – | – | 205.2 (184.9–225.5) µg/mL | – | –
8 | C/C=C/c1ccc(OC)c(OC)c1 [Compound 9, O-methylisoeugenol] | – | 536 µg/mL (≈ 3010 µM) | 20.5% | 33.2% | 40.1% | 47.3% | 58.5% | 151 µM | – | – | – | – | –
9 | C=CCc1ccc(O)c(OC)c1 [Compound 1, Eugenol] | – | 188 µg/mL (≈ 1140 µM) | 32.3% | 44.9% | 55.3% | 62.8% | 75.0% | 180 µM | 187.7 (176.6–198.9) µg/mL | 13.5% | – | < 210 µg/mL | –
10 | C=CCc1ccc(OC(C)=O)c(OC)c1 [Compound 6, acetyleugenol] | – | – | 17.8% | 26.7% | 36.6% | 44.4% | 55.3% | 184 µM | – | – | – | – | 2.02 (1.87–2.14) mg/g of insect
11 | C=CCc1ccc(OC)c(OC)c1 [Compound 2, O-methyleugenol] | – | 504 µg/mL (≈ 2830 µM) | – | – | – | – | – | 157 µM | – | – | – | – | –
